Test results from publication PMC6100468 (2018).

How the values were obtained:
[1] = test system: F21T (DNA, G4) GGGTTAGGGTTAGGGTTAGGG; assay: FRET melting; details: 60 mM K+; 0.2 μM DNA, 1.0 μM compound (methods text: 2 μM, 100 mM LiCl); cacodylate pH 7.4
[2] = test system: FPu18T (DNA, G4) AGGGTGGGGAGGGTGGGG; assay: FRET melting; details: 60 mM K+; 0.2 μM DNA, 1.0 μM compound (methods text: 2 μM, 100 mM LiCl); cacodylate pH 7.4
[3] = test system: Fc-kit1T (DNA, G4) AGGGAGGGCGCTGGGAGGAGGG; assay: microscale thermophoresis; details: 100 mM K+; 10 mM Tris-HCl pH 7.4
[4] = test system: Fc-kit1T (DNA, G4) AGGGAGGGCGCTGGGAGGAGGG; assay: FRET melting; details: 60 mM K+; 0.2 μM DNA, 1.0 μM compound (methods text: 2 μM, 100 mM LiCl); cacodylate pH 7.4
[5] = test system: F10T (DNA, hairpin, hexaethylene glycol (HEG) linker between nucleotides 10 and 11) TATAGCTATATATAGCTATA; assay: FRET melting; details: 60 mM K+; 0.2 μM DNA, 1.0 μM compound (methods text: 2 μM, 100 mM LiCl); cacodylate pH 7.4

COc1cc2c(cc1OC)-c1cc3ccc(OC)c(OC)c3c[n+]1CC2
ΔTm [1]: 1.8 ± 0.2 °C
ΔTm [2]: 11.2 ± 0.1 °C
Kd [3]: 3.25 ± 0.32 µM

COc1cc2c(cc1OC)-c1cc3ccc(OC)c(OCC(=O)N[C@@H](CCCCN)C(=O)N[C@@H](CCCNC(=N)N)C(N)=O)c3c[n+]1CC2
Kd [3]: 2.65 ± 0.33 µM

COc1cc2c(cc1OC)-c1cc3ccc(OC)c(OCC(=O)N[C@@H](CCCCN)C(=O)N[C@@H](Cc4ccccc4)C(=O)N[C@@H](CCCNC(=N)N)C(N)=O)c3c[n+]1CC2
ΔTm [1]: 0.0 ± 1.2 °C
Kd [3]: 8.00 ± 0.89 µM

COc1cc2c(cc1OC)-c1cc3ccc(OC)c(OCC(=O)N[C@@H](CCCNC(=N)N)C(=O)N[C@@H](CCCNC(=N)N)C(N)=O)c3c[n+]1CC2
ΔTm [1]: 10.6 ± 0.2 °C
ΔTm [2]: 19.6 ± 0.9 °C
Kd [3]: 1.47 ± 0.12 µM

COc1cc2c(cc1OC)-c1cc3ccc(OC)c(OCC(=O)N[C@@H](Cc4ccccc4)C(=O)NCC(=O)N[C@@H](CCCCN)C(N)=O)c3c[n+]1CC2
ΔTm [2]: 5.0 ± 1.0 °C
Kd [3]: 11.10 ± 0.51 µM
ΔTm [4]: 6.1 ± 0.9 °C

COc1cc2c(cc1OC)-c1cc3ccc(OC)c(OCC(=O)N[C@@H](Cc4ccccc4)C(=O)N[C@@H](CCCCN)C(=O)N[C@@H](CCCN=C(N)N)C(N)=O)c3c[n+]1CC2
Kd [3]: 6.60 ± 0.472 µM

COc1cc2c(cc1OC)-c1cc3ccc(OC)c(OCC(=O)N[C@@H](Cc4ccccc4)C(=O)N[C@@H](CCCNC(=N)N)C(N)=O)c3c[n+]1CC2
ΔTm [1]: 11.0 ± 0.1 °C
ΔTm [2]: 23.8 ± 0.6 °C
ΔTm [5]: 0.8 ± 0.4 °C
Kd [3]: 1.41 ± 0.09 µM
ΔTm [4]: 21.7 ± 0.8 °C

COc1cc2c(cc1OC)-c1cc3ccc(OC)c(OCC(=O)N[C@@H](Cc4ccccc4)C(=O)N[C@@H](Cc4cnc[nH]4)C(=O)N[C@@H](CCCNC(=N)N)C(N)=O)c3c[n+]1CC2
ΔTm [5]: 0.0 ± 1.0 °C
Kd [3]: 9.68 ± 0.57 µM
